From publication PMC10648852, “Molecular drivers of resistance to sulbactam-durlobactam in contemporary clinical isolates of Acinetobacter baumannii” (Antimicrobial Agents and Chemotherapy, 2023)
Read-outs that look alike come from different tables or passages of the source.

Legend:
[1] = system: isogenic A. baylyi ADP1 panel encoding wildtype or mutant PBP3; assay: Broth microdilution MIC, isogenic A. baylyi panel (PBP3 variants with or without overexpressed β-lactamases); format: cell-based; conditions: for increase in MIC values in the presence of β-lactamase: wildtype PBP3 strain
Method: To understand the effect of PBP3 variants on whole cell activity in the absence of other resistance determinants, the MIC values of sulbactam, SUL-DUR and comparator β-lactams were measured against an isogenic A. baylyi panel engineered to contain individual strains in which the endogenous PBP3 was replaced with the variant of interest.
Each of the A. baylyi panel members were then transformed with plasmids that constitutively expressed five distinct, representative β-lactamases commonly found in Acinetobacter clinical isolates (TEM-1, ADC-30, OXA-23, OXA-24 or OXA-66) and evaluated for changes in antibiotic susceptibility. […] . […] .
The isogenic A. baylyi panel used for chromosomal expression of various PBP3 mutants with or without constitutive expression of various β-lactamases were constructed as part of this study. The A. baylyi ADP1 PBP3 ORF was cloned into pUC19 with a gentamicin cassette inserted downstream of the PBP3 ORF for selection purposes. Additionally, 500 bp of flanking homology to the ADP1 genome were inserted upstream of the PBP3 ORF and downstream of the gentamicin cassette. […] Linear DNA consisting of the 500 bp upstream-PBP3-Gent-500 bp downstream fragment was cloned out of the pUC19 plasmid by PCR and used for transformation of the ADP1 strain. The strain was grown at 30°C overnight in LB medium shaking at 250 rpm. Seventy microliters of the overnight ADP1 culture were combined with 1 mL of fresh LB and 200 ng of linear DNA fragment and incubated for 5 h at 30°C and shaking at 200 rpm. Various dilutions of each culture were plated on LB agar supplemented with 10 µg/mL of gentamicin to select for transformants with successful chromosomal integrations. Integrants were verified by Sanger sequencing using purified genomic DNA.
For the constitutive expression of various β-lactamases, ORFs of bla TEM-1, bla ADC-30, bla OXA-23, bla OXA-24, and bla OXA-66 were cloned by PCR from various clinical strains that encode these genes and inserted into the pWH1266 plasmid modified to encode a kanamycin cassette for selection. These plasmids along with an empty vector were used to transform each of the A. baylyi ADP1 strains engineered above that encode wild-type PBP3 or variants. Transformations were carried out as done above with selection on LB agar supplemented with 20 µg/mL of kanamycin.
(§1) Antimicrobial susceptibility testing was performed using broth microdilution following standardized methods established by the Clinical Laboratory Standards Institute (CLSI) ([35], [36]). Quality control testing was performed as specified by CLSI using A. baumannii NCTC 13304 ([35]). MIC values were interpreted using CLSI breakpoints for all antimicrobial agents except those for which CLSI breakpoints are not available ([35]). SUL-DUR was tested as twofold dilutions of sulbactam in combination with a fixed concentration of 4 µg/mL durlobactam ([35]).

A. baumannii PBP3 S395F = system: A. baumannii PBP3 S395F; set-up: method as in McLeod et al. (2018); conditions: average ± SD, ref McLeod et al. (2018); cited from earlier work
A. baumannii PBP3 S390T = assay: Acylation rate constant (kinact/Ki), fluorescence anisotropy competition with BOCILLIN; conditions: variant data from McLeod et al. (2018)
[2] = system: A. baumannii KAB1544 and efflux overexpression mutants; assay: Broth microdilution MIC, isogenic A. baumannii overexpression efflux mutants; format: cell-based; conditions: for MIC: Acinetobacter baumannii; for change in MIC values relative to the parent strain: most of the AdeR and AdeS mutants (AdeABC overexpression), KAB1544
Method: (§2) To further assess the role of efflux in SUL-DUR activity against Acinetobacter spp., two panels of A. baumannii isogenic strains were tested. The first consisted of 7 members of an A. baumannii transposon library ([28]) with single gene disruptions in the adeABC, adeIJK, or adeT loci as compared to the parent strain, AB5075. […] This panel of strains consists of four different point mutants in AdeR and five different point mutants in AdeS, which result in the upregulation of AdeABC expression. In addition, this panel contains chromosomal deletions of adeL and adeN, which result in overexpression of AdeFGH and AdeIJK, respectively ([29]).
In contrast, sulbactam, SUL-DUR, and imipenem MIC values were unaffected by these mutants (Table 4).
(§3) The AB5075 parent strain as well as transposon interrupted AdeABC, AdeIJK, and AdeT were purchased from the Manoil laboratory at the University of Washington from their arrayed transposon mutant collection ([28]). The KAB1544 parent as well as efflux pump regulator mutants and deletions were constructed as previously described ([29]).
as §1

[3] = system: 5,032 ABC clinical isolates; conditions: 5,032 ABC clinical isolates 2016-2021; durlobactam fixed at 4 µg/mL in SUL-DUR; cited from earlier work
[4] = system: A. baumannii AB5075 and transposon mutants in efflux genes; assay: Broth microdilution MIC, isogenic A. baumannii transposon mutants in efflux genes; format: cell-based; conditions: for In vitro activity (MIC): tested in duplicate; for MIC changes as compared to the parent strain: all tested efflux gene disruptions, AB5075
Method: as §2
The parent and each isogenic mutant strain in both panels was measured for susceptibility to sulbactam, durlobactam, SUL-DUR, imipenem, and gentamicin. […].
as §3, §1

[5] = Acinetobacter baylyi, A. baylyi, PBP3 H370Y, overexpressed ADC-30
[6] = Acinetobacter baylyi, A. baylyi, PBP3 H370Y, overexpressed OXA-23
[7] = Acinetobacter baylyi, A. baylyi, PBP3 H370Y, overexpressed OXA-24
[8] = Acinetobacter baylyi, A. baylyi, PBP3 H370Y, overexpressed OXA-66
[9] = Acinetobacter baylyi, A. baylyi, PBP3 H370Y, overexpressed TEM-1
[10] = Acinetobacter baylyi, A. baylyi, PBP3 H370Y, β-lactamase None (empty vector)
[11] = Acinetobacter baylyi, A. baylyi, PBP3 Wildtype, overexpressed ADC-30, read-out: MIC
[12] = Acinetobacter baylyi, A. baylyi, PBP3 Wildtype, overexpressed OXA-23, read-out: MIC
[13] = Acinetobacter baylyi, A. baylyi, PBP3 Wildtype, overexpressed OXA-24, read-out: MIC
[14] = Acinetobacter baylyi, A. baylyi, PBP3 Wildtype, overexpressed OXA-66, read-out: MIC
[15] = Acinetobacter baylyi, A. baylyi, PBP3 Wildtype, overexpressed TEM-1, read-out: MIC
[16] = Acinetobacter baylyi, A. baylyi, PBP3 Wildtype, β-lactamase None (empty vector), read-out: MIC
[17] = AdeR A91V, AdeABC overexpressed, read-out: MIC
[18] = AdeR D20N, AdeABC overexpressed, read-out: MIC
[19] = AdeR E219A, AdeABC overexpressed, read-out: MIC
[20] = AdeR P116L, AdeABC overexpressed, read-out: MIC
[21] = AdeS A94V, AdeABC overexpressed, read-out: MIC
[22] = AdeS G30D, AdeABC overexpressed, read-out: MIC
[23] = AdeS G103D, AdeABC overexpressed, read-out: MIC
[24] = AdeS R152K, AdeABC overexpressed, read-out: MIC
[25] = AdeS T153M, AdeABC overexpressed, read-out: MIC
[26] = Parent (KAB1544), no efflux pump overexpressed, read-out: MIC

| SMILES | MIC [1, 5] [µg/mL] | MIC [1, 6] [µg/mL] | MIC [1, 7] [µg/mL] | MIC [1, 8] [µg/mL] | MIC [1, 9] [µg/mL] | MIC [1, 10] [µg/mL] | MIC [1, 11] [µg/mL] | MIC [1, 12] [µg/mL] | MIC [1, 13] [µg/mL] | MIC [1, 14] [µg/mL] | MIC [1, 15] [µg/mL] | MIC [1, 16] [µg/mL] | k inact/K i (A. baumannii PBP3 S395F) | % WT (A. baumannii PBP3 S390T) [%] | MIC [2, 17] [µg/mL] | MIC [2, 18] [µg/mL] | MIC [2, 19] [µg/mL] | MIC [2, 20] [µg/mL] | MIC [2, 21] [µg/mL] | MIC [2, 22] [µg/mL] | further results |
| --- | --- | --- | --- | --- | --- | --- | --- | --- | --- | --- | --- | --- | --- | --- | --- | --- | --- | --- | --- | --- | --- |
| C[C@@H](O)[C@H]1C(=O)N2C(C(=O)O)=C(S[C@@H]3CN[C@H](C(=O)N(C)C)C3)[C@H](C)[C@H]12 [meropenem] | 0.06 | 8 | > 8 | 0.5 | 0.06 | 0.06 | 0.13 | 8 | > 8 | 1 | 0.13 | 0.06 | 1,500 ± 200 ([3]) M^-1s^-1 |  |  |  |  |  |  |  | increase in MIC values in the presence of β-lactamase ([1]; OXA-23, OXA-24 and OXA-66): ≥ 4 fold |
| CC1(C)[C@H](C(=O)O)N2C(=O)C[C@H]2S1(=O)=O [sulbactam] | 2 | > 64 | > 64 | 4 | 4 | 8 | 2 | > 64 | 16 | 8 | 16 | 4 | 0.63 ± 0.06 ([3]) M^-1s^-1 | 0.2 | 1 | 1 | 2 | 1 | 1 | 1 | increase in MIC values in the presence of β-lactamase ([1]; TEM-1, OXA-23 and OXA-24): ≥ 4 fold; MIC ([1]; {}): >64 µg/mL; MIC [2, 23]: 2 µg/mL; MIC [2, 24]: 1 µg/mL; MIC [2, 25]: 1 µg/mL; MIC [2, 26]: 2 µg/mL; MIC ([2]; ΔadeL, AdeFGH overexpressed): 1 µg/mL; MIC ([2]; ΔadeN, AdeIJK overexpressed): 2 µg/mL; change in MIC values relative to the parent strain [2]: unaffected; MIC50 [3]: 8 µg/mL; MIC90 [3]: 32 µg/mL; In vitro activity (MIC) ([4]; Parent (AB5075)): 64 µg/mL; In vitro activity (MIC) ([4]; adeA::tn in AB5075): 32 µg/mL; In vitro activity (MIC) ([4]; adeB::tn in AB5075): 32 µg/mL; In vitro activity (MIC) ([4]; adeC::tn in AB5075): 64 µg/mL; In vitro activity (MIC) ([4]; adeI::tn in AB5075): 32 µg/mL; In vitro activity (MIC) ([4]; adeJ::tn in AB5075): 64 µg/mL; In vitro activity (MIC) ([4]; adeK::tn in AB5075): 32 µg/mL; In vitro activity (MIC) ([4]; adeT::tn in AB5075): 64 µg/mL; MIC changes as compared to the parent strain [4]: ≤ 2 fold |
| C[C@@H](O)[C@H]1C(=O)N2C(C(=O)O)=C(SCCN=CN)C[C@H]12 [imipenem] | 0.03 | 4 | > 8 | 0.06 | 0.03 | 0.03 | 0.13 | 8 | 8 | 0.13 | 0.03 | 0.03 | 8.8 ± 0.7 ([3]) M^-1s^-1 | 120 | 0.5 | 0.5 | 0.25 | 0.5 | 0.5 | 0.5 | increase in MIC values in the presence of β-lactamase ([1]; ADC-30, OXA-23, OXA-24 and OXA-66): ≥ 4 fold; MIC [2, 23]: 0.25 µg/mL; MIC [2, 24]: 0.5 µg/mL; MIC [2, 25]: 0.5 µg/mL; MIC [2, 26]: 0.25 µg/mL; MIC ([2]; ΔadeL, AdeFGH overexpressed): 0.25 µg/mL; MIC ([2]; ΔadeN, AdeIJK overexpressed): 0.25 µg/mL; change in MIC values relative to the parent strain [2]: unaffected; In vitro activity (MIC) ([4]; Parent (AB5075)): 16 µg/mL; In vitro activity (MIC) ([4]; adeA::tn in AB5075): 8 µg/mL; In vitro activity (MIC) ([4]; adeB::tn in AB5075): 8 µg/mL; In vitro activity (MIC) ([4]; adeC::tn in AB5075): 16 µg/mL; In vitro activity (MIC) ([4]; adeI::tn in AB5075): 16 µg/mL; In vitro activity (MIC) ([4]; adeJ::tn in AB5075): 16 µg/mL; In vitro activity (MIC) ([4]; adeK::tn in AB5075): 16 µg/mL; In vitro activity (MIC) ([4]; adeT::tn in AB5075): 8 µg/mL; MIC changes as compared to the parent strain [4]: ≤ 2 fold |
